The results in this text go back to patent US12516056B2, “Compounds for inhibition of janus kinase 1” (MANKIND PHARMA LTD., priority 2019, dated 2026).

For one assay, the target named is T1, Recombinant JAK1 (Homo sapiens, UniProt P23458).
T1 construct: purchased Carna Biosciences
In words: JAK biochemical assay (LANCE Ultra TR-FRET), JAK1. The note with it: recombinant JAK1, TR-FRET; read-out: Biochemical Assay (μM) JAK1. In a few lines:
(§1)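 TR-FRET read-out of ULight substrate phosphorylation by recombinant kinase gives % inhibition relative to vehicle. The assay buffer is HEPES pH 7.5 with EGTA, MgCl2, DTT and Tween-20.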
(In general: TR-FRET usually uses a lanthanide donor and a delayed reading to cut background.)

Another assay has as its target T2, Recombinant JAK2 (Homo sapiens, UniProt O60674).
T2 construct: purchased Carna Biosciences
Nature of the assay: JAK biochemical assay (LANCE Ultra TR-FRET), JAK2. As to conditions: recombinant JAK2, TR-FRET; read-out: Biochemical Assay (μM) JAK2. The procedure, abridged: as §1

The target of the next assay is T3, Recombinant JAK3 (Homo sapiens, UniProt P52333).
T3 construct: purchased Carna Biosciences
T3 sequence (P52333 1-1124): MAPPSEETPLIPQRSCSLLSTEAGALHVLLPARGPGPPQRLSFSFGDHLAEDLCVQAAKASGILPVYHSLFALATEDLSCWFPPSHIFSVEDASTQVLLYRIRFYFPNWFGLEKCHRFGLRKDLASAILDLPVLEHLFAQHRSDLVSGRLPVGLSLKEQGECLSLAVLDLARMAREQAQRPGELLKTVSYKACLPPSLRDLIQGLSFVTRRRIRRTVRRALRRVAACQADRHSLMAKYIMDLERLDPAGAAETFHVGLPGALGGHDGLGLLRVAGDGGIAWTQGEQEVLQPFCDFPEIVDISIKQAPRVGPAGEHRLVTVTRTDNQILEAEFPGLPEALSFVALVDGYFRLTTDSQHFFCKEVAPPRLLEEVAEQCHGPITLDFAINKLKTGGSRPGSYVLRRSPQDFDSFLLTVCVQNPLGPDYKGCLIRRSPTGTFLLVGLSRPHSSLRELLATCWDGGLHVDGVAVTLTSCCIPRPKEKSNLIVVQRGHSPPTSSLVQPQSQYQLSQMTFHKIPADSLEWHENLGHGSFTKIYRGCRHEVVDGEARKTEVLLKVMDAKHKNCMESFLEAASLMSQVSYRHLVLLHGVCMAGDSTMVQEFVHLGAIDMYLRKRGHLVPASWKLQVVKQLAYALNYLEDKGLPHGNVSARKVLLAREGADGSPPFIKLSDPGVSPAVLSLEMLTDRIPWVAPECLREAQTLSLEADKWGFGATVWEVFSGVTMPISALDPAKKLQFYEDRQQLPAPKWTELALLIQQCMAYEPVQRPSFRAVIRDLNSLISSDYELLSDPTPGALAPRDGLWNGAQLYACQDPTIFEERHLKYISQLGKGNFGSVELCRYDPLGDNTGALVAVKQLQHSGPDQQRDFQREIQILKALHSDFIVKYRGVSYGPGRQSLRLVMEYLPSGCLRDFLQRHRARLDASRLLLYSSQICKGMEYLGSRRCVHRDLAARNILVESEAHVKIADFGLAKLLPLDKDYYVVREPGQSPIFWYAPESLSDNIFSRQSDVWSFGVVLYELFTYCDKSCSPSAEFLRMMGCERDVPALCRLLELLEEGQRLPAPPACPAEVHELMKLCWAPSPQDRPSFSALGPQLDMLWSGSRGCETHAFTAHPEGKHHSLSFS
Nature of the assay: JAK biochemical assay (LANCE Ultra TR-FRET), JAK3. The note with it: recombinant JAK3, TR-FRET; read-out: Biochemical Assay (μM) JAK3. The procedure, abridged:
as §1

The next assay deals with T4, Recombinant TYK2 (Homo sapiens, UniProt P29597).
T4 construct: purchased Carna Biosciences
T4 sequence (P29597 whole entry): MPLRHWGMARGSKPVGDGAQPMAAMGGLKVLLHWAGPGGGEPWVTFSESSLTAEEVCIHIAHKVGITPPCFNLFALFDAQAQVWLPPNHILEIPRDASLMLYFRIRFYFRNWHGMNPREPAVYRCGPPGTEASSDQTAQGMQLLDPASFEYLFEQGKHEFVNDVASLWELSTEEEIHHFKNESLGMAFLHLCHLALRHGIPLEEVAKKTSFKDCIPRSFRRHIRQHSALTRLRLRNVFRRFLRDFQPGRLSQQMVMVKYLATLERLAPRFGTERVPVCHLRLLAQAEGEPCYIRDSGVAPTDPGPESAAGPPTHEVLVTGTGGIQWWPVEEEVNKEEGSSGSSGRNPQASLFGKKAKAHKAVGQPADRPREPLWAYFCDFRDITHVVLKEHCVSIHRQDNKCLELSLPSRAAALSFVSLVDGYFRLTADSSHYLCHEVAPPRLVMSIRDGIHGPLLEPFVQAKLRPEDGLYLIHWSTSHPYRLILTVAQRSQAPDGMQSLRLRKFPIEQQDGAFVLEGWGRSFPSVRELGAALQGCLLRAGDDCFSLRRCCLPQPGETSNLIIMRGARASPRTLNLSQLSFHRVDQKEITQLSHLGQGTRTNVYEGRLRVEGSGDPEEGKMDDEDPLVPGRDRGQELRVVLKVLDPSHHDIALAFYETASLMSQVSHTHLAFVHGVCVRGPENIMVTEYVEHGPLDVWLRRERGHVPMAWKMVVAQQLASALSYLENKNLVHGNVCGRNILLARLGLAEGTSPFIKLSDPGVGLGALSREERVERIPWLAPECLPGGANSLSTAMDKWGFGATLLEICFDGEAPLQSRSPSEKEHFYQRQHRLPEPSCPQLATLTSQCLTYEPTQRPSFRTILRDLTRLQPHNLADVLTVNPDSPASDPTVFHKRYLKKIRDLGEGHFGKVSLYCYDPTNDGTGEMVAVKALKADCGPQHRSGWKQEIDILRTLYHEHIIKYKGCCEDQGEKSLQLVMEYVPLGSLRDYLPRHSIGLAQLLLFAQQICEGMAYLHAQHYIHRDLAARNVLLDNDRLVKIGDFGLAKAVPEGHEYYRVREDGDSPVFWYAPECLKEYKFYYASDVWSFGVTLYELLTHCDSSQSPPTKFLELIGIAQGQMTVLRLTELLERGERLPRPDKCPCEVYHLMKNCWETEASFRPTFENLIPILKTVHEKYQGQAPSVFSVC
Nature of the assay: JAK biochemical assay (LANCE Ultra TR-FRET), TYK2. As to conditions: recombinant TYK2, TR-FRET; read-out: Biochemical Assay (μM) TYK2. The procedure, abridged: as §1

The subject of assay [1] is STAT3 phosphorylation by IL-6 in TF-1 cells. Nature of the assay: JAK cellular assay: STAT3 phosphorylation by IL-6 in TF-1 cells (HTRF). Type of assay: cell-based. As to conditions: IL-6 30 ng/ml, pSTAT3 HTRF, read-out: Cell Based Assay (μM) TF-1/IL-6/pSTAT3. The procedure, abridged:
(§2)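 TF-1 cells starved overnight in low-serum OptiMEM, then 120,000/well in RPMI, preincubated with compound 30 min at 37 °C (0.2% DMSO final). Stimulation 20 min with IL-6 30 ng/ml (pSTAT3) or GMCSF 5 ng/ml (pSTAT5); lysate phospho-STAT by HTRF, unstimulated background subtracted.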

Assay [2] has as its system STAT5 phosphorylation by GMCSF in TF-1 cells. In words: JAK cellular assay: STAT5 phosphorylation by GMCSF in TF-1 cells (HTRF). The note with it: Homo sapiens; TF-1 cells, GMCSF 5 ng/ml, pSTAT5 HTRF; read-out: Cell Based Assay (μM) TF-1/GMCSF/pSTAT5. Type of assay: cell-based. The procedure, abridged:
as §2

Assay [3] deals with STAT5 phosphorylation by IL-2 in HT-2 cells. In words: STAT5 phosphorylation by IL-2 in HT-2 cells (HTRF). The assay is classed as cell-based. The note with it: IL-2 50 U/ml, pSTAT5 HTRF, read-out: Cell Based Assay (μM) HT-2/IL-2/pSTAT5. On the procedure:
HT-2 cells were starved […] in RPMI phenol red with 10% fetal bovine serum for 4 hours in CO2 incubator maintained at 37° c. Compounds were diluted in DMSO and added to 96 well plate containing a final density of 1,20,000 cells per well. Cells and compounds are incubated for 30 minutes in CO2 incubator maintained at 37° C. and final DMSO concentration in cell based assay was 0.2%. Human recombinant cytokine, IL-2 (50 U/ml) was added to the plate containing cells and compound and incubated for 20 minutes with gentle tapping/shaking at every 5 minutes once. Compound mediated effects on STAT5 phosphorylation was measured in the lysates prepared by using CISBIO pSTAT5 detection kit by HTRF method. Background signal obtained from cells which were not activated with cytokines, was subtracted from vehicle controls and compound treated wells.

Where a name gives a salt, the structure may show the parent alone. Read-outs that look alike come from different tables or passages of the source.

T2 sequence (O60674 whole entry): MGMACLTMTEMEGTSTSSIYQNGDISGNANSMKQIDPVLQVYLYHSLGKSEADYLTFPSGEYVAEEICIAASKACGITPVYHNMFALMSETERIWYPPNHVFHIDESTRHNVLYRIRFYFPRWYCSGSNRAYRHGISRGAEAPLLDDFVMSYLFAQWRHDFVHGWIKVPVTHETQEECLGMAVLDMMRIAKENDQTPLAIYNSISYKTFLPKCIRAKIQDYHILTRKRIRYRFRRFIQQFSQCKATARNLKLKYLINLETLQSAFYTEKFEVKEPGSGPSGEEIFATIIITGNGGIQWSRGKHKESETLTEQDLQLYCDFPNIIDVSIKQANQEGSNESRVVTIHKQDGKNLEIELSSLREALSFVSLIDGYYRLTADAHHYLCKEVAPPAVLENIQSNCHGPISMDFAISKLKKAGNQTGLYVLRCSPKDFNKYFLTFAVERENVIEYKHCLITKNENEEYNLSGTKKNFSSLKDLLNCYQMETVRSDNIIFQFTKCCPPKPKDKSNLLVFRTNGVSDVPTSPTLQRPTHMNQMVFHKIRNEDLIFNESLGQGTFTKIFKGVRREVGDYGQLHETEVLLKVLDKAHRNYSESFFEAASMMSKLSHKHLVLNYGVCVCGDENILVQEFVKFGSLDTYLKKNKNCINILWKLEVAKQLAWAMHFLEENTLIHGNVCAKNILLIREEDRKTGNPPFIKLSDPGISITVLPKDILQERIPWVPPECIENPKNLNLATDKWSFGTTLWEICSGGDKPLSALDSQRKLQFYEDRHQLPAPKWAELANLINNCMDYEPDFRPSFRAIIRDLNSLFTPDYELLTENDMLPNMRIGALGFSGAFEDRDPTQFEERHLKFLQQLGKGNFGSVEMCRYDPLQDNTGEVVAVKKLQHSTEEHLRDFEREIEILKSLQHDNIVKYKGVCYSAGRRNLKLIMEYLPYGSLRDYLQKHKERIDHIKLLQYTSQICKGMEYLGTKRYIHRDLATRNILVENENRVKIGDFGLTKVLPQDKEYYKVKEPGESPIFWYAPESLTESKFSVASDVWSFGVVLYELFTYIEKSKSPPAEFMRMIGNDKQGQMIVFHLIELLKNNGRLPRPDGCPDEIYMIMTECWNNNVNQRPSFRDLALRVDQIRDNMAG
T1 sequence (P23458 whole entry): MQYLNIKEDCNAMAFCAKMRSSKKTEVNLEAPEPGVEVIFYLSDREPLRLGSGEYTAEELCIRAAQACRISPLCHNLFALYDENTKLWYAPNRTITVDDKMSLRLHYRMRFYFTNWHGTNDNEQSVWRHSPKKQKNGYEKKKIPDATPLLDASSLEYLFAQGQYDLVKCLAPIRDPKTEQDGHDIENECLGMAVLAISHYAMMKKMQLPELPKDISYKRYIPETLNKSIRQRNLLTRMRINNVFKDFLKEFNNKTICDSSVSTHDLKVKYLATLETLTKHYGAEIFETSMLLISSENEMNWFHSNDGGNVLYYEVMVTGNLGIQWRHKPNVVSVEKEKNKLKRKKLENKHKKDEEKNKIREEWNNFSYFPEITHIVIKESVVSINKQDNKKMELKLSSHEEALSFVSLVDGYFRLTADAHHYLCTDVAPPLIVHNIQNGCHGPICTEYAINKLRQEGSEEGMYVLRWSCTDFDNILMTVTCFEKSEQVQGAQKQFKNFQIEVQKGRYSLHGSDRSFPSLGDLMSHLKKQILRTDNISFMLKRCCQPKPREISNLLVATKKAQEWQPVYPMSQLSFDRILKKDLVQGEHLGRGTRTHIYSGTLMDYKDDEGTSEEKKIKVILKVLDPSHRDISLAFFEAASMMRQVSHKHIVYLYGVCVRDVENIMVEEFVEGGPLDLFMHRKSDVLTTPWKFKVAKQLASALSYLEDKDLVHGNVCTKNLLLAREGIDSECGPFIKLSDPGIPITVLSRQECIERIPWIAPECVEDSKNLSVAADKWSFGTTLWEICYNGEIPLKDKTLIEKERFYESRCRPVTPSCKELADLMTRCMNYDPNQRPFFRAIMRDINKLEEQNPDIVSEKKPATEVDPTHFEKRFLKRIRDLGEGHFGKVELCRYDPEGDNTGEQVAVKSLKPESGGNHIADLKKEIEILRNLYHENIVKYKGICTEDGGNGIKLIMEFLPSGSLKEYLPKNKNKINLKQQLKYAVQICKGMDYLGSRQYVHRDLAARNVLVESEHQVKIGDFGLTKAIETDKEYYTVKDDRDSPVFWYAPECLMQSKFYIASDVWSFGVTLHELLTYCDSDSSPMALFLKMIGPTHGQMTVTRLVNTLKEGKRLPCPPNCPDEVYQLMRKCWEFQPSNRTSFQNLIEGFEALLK

`CNCCC(c1ccc(-n2cc(-c3ccnc4[nH]cnc34)cn2)nc1)C(F)(F)F` (stereo not shown) [Example 1198, 3-(6-(4-(3H-imidazo[4,5-b]pyridin-7-yl)-1H-pyrazol-1-yl)pyridin-3-yl)-4,4,4-trifluoro-N-methylbutan-1-amine]: the IC50 is less than 0.1 µM on Recombinant JAK1; less than 0.1 µM on Recombinant JAK2; less than 0.1 µM at Recombinant JAK3; more than 0.5 µM on Recombinant TYK2; 0.1 µM in assay [1] (TF-1 cells); 1 µM in assay [2]. Further, the IC50 in assay [3] (HT-2 cells) is 0.6 µM.
As to `O[C@](c1ccc(-n2cc(-c3ccnc4[nH]cnc34)cn2)nc1)(C1CCN(C2COC2)C1)C(F)(F)F` (stereo partly drawn) [Example 1243, (S)-1-(6-(4-(3H-imidazo[4,5-b]pyridin-7-yl)-1H-pyrazol-1-yl)pyridin-3-yl)-2,2,2-trifluoro-1-(1-(oxetan-3-yl)pyrrolidin-3-yl)ethanol], the IC50 is less than 0.1 µM at Recombinant JAK1; less than 0.1 µM at Recombinant JAK2; less than 0.1 µM at Recombinant JAK3; more than 1 µM on Recombinant TYK2; more than 1 µM in assay [1] (Homo sapiens, TF-1, TF-1 cells); more than 1 µM in assay [2]. The IC50 in assay [3] (HT2, HT-2 cells) was more than 1 µM.
Consider `CNCCOC(c1ccc(-n2cc(-c3ccnc4[nH]cnc34)cn2)nc1)C(F)(F)F` (stereo not shown) [Example 1228, 2-(1-(6-(4-(3H-imidazo[4,5-b]pyridin-7-yl)-1H-pyrazol-1-yl)pyridin-3-yl)-2,2,2-trifluoroethoxy)-N-methylethanamine], for which the IC50 on Recombinant JAK1 was less than 0.1 µM; on Recombinant JAK2, less than 0.1 µM; on Recombinant JAK3, less than 0.1 µM; at Recombinant TYK2, more than 0.1 µM; in assay [1] (Homo sapiens, TF-1, TF-1 cells), more than 0.5 µM; in assay [2], more than 1 µM. In addition, in assay [3] (HT2, HT-2 cells), the IC50 is more than 0.5 µM.
Turning to `O=C(NCCC(c1ccc(-n2cc(-c3ccnc4[nH]cnc34)cn2)nc1)C(F)(F)F)NC1CC1` (stereo not shown) [Example 1179, 1-(3-(6-(4-(3H-imidazo[4,5-b]pyridin-7-yl)-1H-Pyrazol-1-yl)pyridin-3-yl)-4,4,4-trifluorobutyl)-3-cyclopropylurea], the IC50 on Recombinant JAK1 was less than 0.1 µM; on Recombinant JAK2 it was less than 0.1 µM; at Recombinant JAK3, less than 0.1 µM; on Recombinant TYK2, more than 1 µM; in assay [1] (Homo sapiens, TF-1, TF-1 cells) it was more than 1 µM; in assay [2], more than 1 µM. Also, the IC50 in assay [3] (HT2, HT-2 cells) was more than 1 µM.
With `CC(C)NC(=O)CCC(O)(c1ccc(-n2cc(-c3ccnc4[nH]cnc34)cn2)nc1)C(F)(F)F` (stereo not shown) [Example 1238, 4-(6-(4-(3H-imidazo[4,5-b]pyridin-7-yl)-1H-pyrazol-1-yl)pyridin-3-yl)-5,5,5-trifluoro-4-hydroxy-N-isopropylpentanamide], the IC50 at Recombinant JAK1 is 0.003 µM; on Recombinant JAK2, more than 0.03 µM; at Recombinant TYK2, more than 0.1 µM; in assay [1] (Homo sapiens, TF-1, TF-1 cells), more than 0.1 µM; in assay [2], 1 µM; in assay [3] (HT2, HT-2 cells), more than 0.1 µM.
In the case of `O[C@@](c1ccc(-n2cc(-c3ccnc4[nH]cnc34)cn2)nc1)(C1CCN(C2COC2)C1)C(F)(F)F` (stereo partly drawn) [Example 1242, (R)-1-(6-(4-(3H-imidazo[4,5-b]pyridin-7-yl)-1H-pyrazol-1-yl)pyridin-3-yl)-2,2,2-trifluoro-1-(1-(oxetan-3-yl)pyrrolidin-3-yl)ethanol], the IC50 at Recombinant JAK1 is less than 0.1 µM; at Recombinant JAK2 it was less than 0.1 µM; on Recombinant JAK3 it was less than 0.1 µM; on Recombinant TYK2, more than 1 µM; in assay [1] (Homo sapiens, TF-1, TF-1 cells) it was more than 1 µM; in assay [2], more than 1 µM. Further, the IC50 in assay [3] (HT2, HT-2 cells) was more than 1 µM.
On to `CS(=O)(=O)NCc1ccc(-n2cc(-c3ccnc4[nH]cnc34)cn2)nc1` [Example 1090, N-((6-(4-(3H-imidazo[4,5-b]pyridin-7-yl)-1H-pyrazol-1-yl)pyridin-3-yl)methyl)methanesulfonamide], for which the IC50 on Recombinant JAK1 was 0.053 µM; on Recombinant JAK2, 0.3 µM; at Recombinant JAK3 it was 0.12 µM; on Recombinant TYK2, more than 1 µM; in assay [1] (Homo sapiens, TF-1, TF-1 cells), more than 1 µM; in assay [2] it was more than 10 µM. The IC50 in assay [3] (HT2, HT-2 cells) was more than 1 µM.
As to `CC(C)NCCOC(c1ccc(-n2cc(-c3ccnc4[nH]cnc34)cn2)nc1)C(F)(F)F` (stereo not shown) [Example 1241, N-(2-(1-(6-(4-(3H-imidazo[4,5-b]pyridin-7-yl)-1H-pyrazol-1-yl)pyridin-3-yl)-2,2,2-trifluoroethoxy)ethyl)propan-2-amine, TFA salt], the IC50 at Recombinant JAK1 was less than 0.1 µM; on Recombinant JAK2, more than 0.1 µM; at Recombinant JAK3, less than 0.1 µM; at Recombinant TYK2, more than 1 µM; in assay [1] (Homo sapiens, TF-1, TF-1 cells), more than 0.5 µM; in assay [2] it was more than 1 µM. In assay [3] (HT2, HT-2 cells), the IC50 was more than 0.75 µM.
For `OC(c1ccc(-n2cc(-c3ccnc4[nH]cnc34)cn2)nc1)(C1CC1)C(F)(F)F` (stereo not shown) [Example 1126, 1-(6-(4-(3H-imidazo[4,5-b]pyridin-7-yl)-1H-pyrazol-1-yl)pyridin-3-yl)-1-cyclopropyl-2,2,2-trifluoroethanol], the IC50 was 0.003 µM on Recombinant JAK1; 0.036 µM at Recombinant JAK2; 0.007 µM on Recombinant JAK3; more than 1 µM on Recombinant TYK2; 0.34 µM in assay [1] (Homo sapiens, TF-1, TF-1 cells); more than 1 µM in assay [2]. For the same molecule, the IC50 in assay [3] (HT2, HT-2 cells) is less than 1 µM.
`CNS(=O)(=O)CCC(c1ccc(-n2cc(-c3ccnc4[nH]cnc34)cn2)nc1)C(F)(F)F` (stereo not shown) [Example 1142, 3-(6-(4-(3H-imidazo[4,5-b]pyridin-7-yl)-1H-pyrazol-1-yl)pyridin-3-yl)-4,4,4-trifluoro-N-methylbutane-1-sulfonamide]: the IC50 on Recombinant JAK1 was less than 0.1 µM; at Recombinant JAK3, less than 0.1 µM; on Recombinant TYK2, more than 1 µM; in assay [1] (Homo sapiens, TF-1, TF-1 cells) it was more than 0.5 µM; in assay [2] it was more than 1 µM; in assay [3] (HT2, HT-2 cells) it was more than 0.5 µM.
Turning to `O=C(Nc1ccncc1)N1CCN(c2ccnc3[nH]c(=O)[nH]c23)CC1` [Example 1014, 4-(2,3-dihydro-2-oxo-1H-imidazo[4,5-b]pyridin-7-yl)-N-(pyridin-4-yl)piperazine-1-carboxamide], the IC50 on Recombinant JAK3 was more than 1 µM; at Recombinant TYK2 it was more than 1 µM; in assay [1] (Homo sapiens, TF-1, TF-1 cells), more than 10 µM; in assay [2] it was more than 10 µM; in assay [3] (HT2, HT-2 cells), more than 10 µM.
For the molecule `O=C(NCC(F)(F)F)N1CCN(c2ccnc3[nH]c(=O)[nH]c23)CC1` [Example 1011, N-(2,2,2-trifluoroethyl)-4-(2,3-dihydro-2-oxo-1H-imidazo[4,5-b]pyridin-7-yl)piperazine-1-carboxamide], the IC50 is more than 1 µM at Recombinant JAK2; more than 1 µM on Recombinant JAK3; more than 1 µM on Recombinant TYK2; more than 10 µM in assay [1] (Homo sapiens, TF-1, TF-1 cells); more than 10 µM in assay [2]; more than 10 µM in assay [3] (HT2, HT-2 cells).
